Patent US12655125B2 (SIRONAX LTD., priority 2020, dated 2026)

test system: HT-29 cells; assay: HT29 Cells 0FBS Assay In Vitro (TNF-α/SMAC mimetic/zVAD-FMK induced necroptosis, CellTiter-Glo cell viability); format: cell-based; conditions: Homo sapiens; HT-29 cells, FBS free medium, TNF-α (10 ng/ml), SMAC mimetic (6 uM), zVAD-FMK (10 μM), 20 hours; geometric mean EC50; read-out: Cell activity (EC50) of Compounds 1-116
Description: Protocol for HT29 Cells 0FBS Assay In Vitro
• Cell line: HT-29 (ATCC® HTB-38™) • Culture medium: McCOY's 5 A, Gibco, Cat No. 16600-082 • FBS, Gibco, Cat No. 10099-141C • Trypsin: Gibco, Cat No. 25200-056 • DMSO: Sigma, Cat No. 67-68-5, 1 L • Assay plate: Corning #3903 • Compound dilution plate: Corning #3357 • Inducers: TNFα, GenScript, Cat No. ZO1001-50, • SmacM, Cat. No., HY-15989, MedChemExpress (MCE) • Z_VAD FMK, TargetMol, T6013 • Cell Titer-Glo® Luminescent Cell Viability Assay Kit: Promega, Cat No. G7573 • EnVision: PerkinElmer, 2105-0010 2. Cell Seeding of HT-29 Cells • 1) HT-29 cells were checked every day to make sure they are healthy and growing as expected. They were split sub-culturing when were approximately 80% confluent. • 2) First pre-warm the culture medium of McCOY's 5 A medium (Gibco, Cat No. 16600-082) with 10% FBS (Gibco, Cat No. 10099-141C) in 37° C. water bath for at least 30 min. • 3) Growing cells to desired level of confluency 80% in a T75 flask, aspirate the medium, and wash with warm PBS two times. • 4) Add 2-3 ml fresh warm trypsin (Gibco, Cat No. 25200-056) solution. Transfer the flask to a 37° C. incubator. • 5) After 5 minutes, tap the side of the flask, and examine the flask under a microscope for lifting. If necessary, return the cells to the incubator for an additional 5-10 minutes, with occasional tapping, until lifting is complete. • 6) Quickly neutralize the trypsin reaction by adding 6-9 ml cell culture medium, then transfer the cells to sterile 15 ml conical tubes. Pellet the cells by centrifugation at 300×g for 7 minutes, then decant the supernatant. • 7) Resuspend the cells in fresh cell culture medium. Do cell counting with hemocytometer. • 8) Seed 100 μl of 5,000 cells into each well of the sterile 96-well cell culture plate (Corning 3903) and culture overnight at 37° C. with 5% C02. 3. Compounds Titration and Treatment of HT-29 Cells • 1) All batches of compounds (CPDs) (e.g., compound 1-281) were dissolved in DMSO (Dimethyl sulfoxide) as 20 mM stock solution. • 2) Take 3 ul 20 mM stock solution of CPDs to 27 ul DMSO and mix well, continue the titration ratio of 1:3 (20 ul CPDs+40 ul DMSO), e.g., to give solutions of CPDS at 6.6 mM, 2.2 mM, etc., till the 10 points end. • 3) Take out assay plates with HT-29 cells from incubator, remove all culture medium then wash 1 time with 1×PBS, and change fresh McCOY's 5 A medium of FBS free with a cocktail of TNF-α (10 ng/ml), the SMAC mimetic (6 uM) and zVAD-FMK (10 μM) to stimulate the HT-29 cells to increase pRIPK1 levels and necroptosis. • 4) Add 0.5 μL of the diluted compound to the corresponding 96-well assay plates. • 5) Incubate the assay plates for 20 hours at 37° C. with 5% C02. 4. Performing Cell Viability Detection of HT-29 Cells after Treated with Compounds • 1) The CellTiter-Glo® Luminescent Cell Viability Assay was employed to detect the ATP levels of viable HT-29 cells. • 2) Equilibrate the CellTiter-Glo® buffer and the lyophilized substrate to room temperature prior to use. • 3) Resuspend the CellTiter-Glo® substrate with CellTiter-Glo® buffer, mix by gently vortexing to obtain a homogeneous solution. • 4) Pipette 20 μl the enzyme/substrate mixture by multi-channel pipette into the 96-well assay plates from step 5) under the Compounds titration and treatment stage. • 5) Place the plates on an orbital shaker and mix the contents for 3 minutes to induce cell lysis. • 6) Then allow the plates to incubate at room temperature for 10 minutes to stabilize luminescent signal. • 7) Read and record luminescence signal with EnVision. • 8) The geometric mean EC50 of the compounds were calculated from points response dose with duplicate. In Tables 2 and 4, activity is provided as follows: +++=0.1 nM≤EC50<100 nM; ++=100 nM≤EC50<1000 nM; +=1000 nM≤EC50<10000 nM.

Row | SMILES | EC50 [nM]
1 | Cc1nc(C)c(-c2ncc(F)c(OC3CN(C(=O)N4N=CC[C@H]4c4cc(F)cc(F)c4)C3)n2)s1 [compound 19, (S)-(5-(3,5-difluorophenyl)-4,5-dihydro-1H-pyrazol-1-yl)(3-((2-(2,4-dimethylthiazol-5-yl)-5-fluoropyrimidin-4-yl)oxy)azetidin-1-yl)methanone] | 0.1 to 100
2 | Cc1noc(C)c1-c1ncc(F)c(OC2CN(C(=O)N3N=CC[C@H]3c3cc(F)cc(F)c3)C2)n1 [compound 20, (S)-(5-(3,5-difluorophenyl)-4,5-dihydro-1H-pyrazol-1-yl)(3-((2-(3,5-dimethylisoxazol-4-yl)-5-fluoropyrimidin-4-yl)oxy)azetidin-1-yl)methanone] | 0.1 to 100
3 | Cc1oncc1-c1ncc(F)c(OC2CN(C(=O)N3N=CC[C@H]3c3cc(F)cc(F)c3)C2)n1 [compound 21, (S)-(5-(3,5-difluorophenyl)-4,5-dihydro-1H-pyrazol-1-yl)(3-((5-fluoro-2-(5-methylisoxazol-4-yl)pyrimidin-4-yl)oxy)azetidin-1-yl)methanone] | 0.1 to 100
4 | Cc1nocc1-c1ncc(F)c(OC2CN(C(=O)N3N=CC[C@H]3c3cc(F)cc(F)c3)C2)n1 [compound 22, (S)-(5-(3,5-difluorophenyl)-4,5-dihydro-1H-pyrazol-1-yl)(3-((5-fluoro-2-(3-methylisoxazol-4-yl)pyrimidin-4-yl)oxy)azetidin-1-yl)methanone] | 0.1 to 100
5 | Cc1csnc1-c1ccc(F)c(OC2CN(C(=O)N3N=CC[C@H]3c3cc(F)cc(F)c3)C2)n1 [compound 23, (S)-(5-(3,5-difluorophenyl)-4,5-dihydro-1H-pyrazol-1-yl)(3-((3-fluoro-6-(4-methylisothiazol-3-yl)pyridin-2-yl)oxy)azetidin-1-yl)methanone] | 0.1 to 100
6 | Cc1nnc(-c2ccc(F)c(OC3CN(C(=O)N4N=CC[C@H]4c4cc(F)cc(F)c4)C3)n2)s1 [compound 24, (S)-(5-(3,5-difluorophenyl)-4,5-dihydro-1H-pyrazol-1-yl)(3-((3-fluoro-6-(5-methyl-1,3,4-thiadiazol-2-yl)pyridin-2-yl)oxy)azetidin-1-yl)methanone] | 0.1 to 100
7 | Cc1ncc(-c2ncc(F)c(OC3CN(C(=O)N4N=CC[C@H]4c4cc(F)cc(F)c4)C3)n2)s1 [compound 25, (S)-(5-(3,5-difluorophenyl)-4,5-dihydro-1H-pyrazol-1-yl)(3-((5-fluoro-2-(2-methylthiazol-5-yl)pyrimidin-4-yl)oxy)azetidin-1-yl)methanone] | 0.1 to 100
8 | Cc1ncc(-c2cc(OC3CN(C(=O)N4N=CC[C@H]4c4cc(F)cc(F)c4)C3)c(F)cn2)s1 [compound 26, (S)-(5-(3,5-difluorophenyl)-4,5-dihydro-1H-pyrazol-1-yl)(3-((5-fluoro-2-(2-methylthiazol-5-yl)pyridin-4-yl)oxy)azetidin-1-yl)methanone] | 0.1 to 100
9 | Cc1nnc(-c2ccc(F)c(OC3CN(C(=O)N4N=CCC4c4cc(F)cc(F)c4)C3)n2)o1 (centres unmarked) [compound 27, (5-(3,5-difluorophenyl)-4,5-dihydro-1H-pyrazol-1-yl)(3-((3-fluoro-6-(5-methyl-1,3,4-oxadiazol-2-yl)pyridin-2-yl)oxy)azetidin-1-yl)methanone] | 100 to 1000
10 | Cn1ncnc1-c1ccc(F)c(OC2CN(C(=O)N3N=CC[C@H]3c3cc(F)cc(F)c3)C2)n1 [compound 28, (S)-(5-(3,5-difluorophenyl)-4,5-dihydro-1H-pyrazol-1-yl)(3-((3-fluoro-6-(1-methyl-1H-1,2,4-triazol-5-yl)pyridin-2-yl)oxy)azetidin-1-yl)methanone] | 0.1 to 100
11 | Cn1ncnc1-c1cc(OC2CN(C(=O)N3N=CC[C@H]3c3cc(F)cc(F)c3)C2)c(F)cn1 [compound 29, (S)-(5-(3,5-difluorophenyl)-4,5-dihydro-1H-pyrazol-1-yl)(3-((5-fluoro-2-(1-methyl-1H-1,2,4-triazol-5-yl)pyridin-4-yl)oxy)azetidin-1-yl)methanone] | 0.1 to 100
